Experimental data as given in patent US4176009A, “Method of measuring collagenase activity” (Ajinomoto Co., Inc., priority 1976, dated 1979).
Non-standard residues stand in square brackets, D forms with d. Residues, ends and D or L forms follow the SMILES beside them. *: point of attachment. Dnp = O=[N+]([O-])c1ccc(*)c([N+](=O)[O-])c1

What was measured:
[1] = system: non-specific peptidases; assay: Time course of hydrolysis of substrate solution(a) by non-specific peptidase (Example 13); assay type: biochemical, human
Protocol: (§1) Purified collagenase used in Examples was prepared from cultured media of tadpole skin explants as described in Biochem. Biophs. Acta, 263 564(1972), and non-specific peptidases were prepared by subjecting 5 ml of fresh adult human serum to chromatography on a calibrated Sephadex G-200 superfine gel column equilibrated with 0.05 M Tris-HCl buffer, pH 7.5, containing 0.15 M NaCl and 5 mM CaCl2, and gathering the effluent fractions corresponding to molecular weights of 100,000-180,000.
(§2) 0.9 ml Each of the substrate solutions was diluted with 0.88 ml of 0.05M tris-HCl buffer, pH 7.5, containing 0.15 M NaCl, and 5 m MCaCl2. The resulting solution was mixed with 0.02 ml of purified collagenase, and incubated. 0.2 ml Aliquots of the reaction mixture were taken out at 0, 10, 20, 40, 60 and 120 minutes, and mixed with 0.5 ml of 1M hydrochloric acid for stopping the enzyme reaction.
(§3) The DNP-peptide fragments released were extracted by vigorous shaking with 1 ml of ethyl acetate-n-butanol (1:0.15, V/V) followed by centrifugation at 3,000-5,000 rpm and room temperature for 10 minutes to separate two layers completely. The degree of hydrolysis was determined by measuring the absorbance of the organic layer at 365 nm.
1 ml of the substrate solution(a) prepared in Example 12 was mixed with 1.0 ml of non-specific peptidase, and the resulting solution was worked up as in Example 12.

[2] = system: non-specific peptidases; assay: Rate of hydrolysis of DNP-peptide derivatives by non-specific peptidases (Example 15); assay type: biochemical, human; details: 5×10^-4 M peptide, 37° C., pH 7.5; average of three experiments; extraction with ethyl acetate (* compounds: ethyl acetate-n-butanol 1:0.15)
Protocol: as §1
(§4) Various DNP-peptide derivatives were dissolved in 0.05 M Tris-HCl buffer, pH 7.5, containing 0.15 M NaCl, 5 mM CaCl2 and 0.02% bovine serum albumin to make a concentration of 5×10^-4 M. 0.1 ml Each of the peptide derivative solutions was mixed with an equal volume of purified collagenase (6.2 U/ml) or non-specific peptidases and incubated for various periods at 37° C. After stopping the enzyme reaction by adding 0.5 ml of 1 M HCl, the DNP-peptide fragments released were extracted by vigorous shaking with 1 ml of ethylacetate or ethyl acetate-n-butanol (1:0.15, V/V), and worked up as in Example 12.

[3] = system: purified collagenase; assay: Time course of hydrolysis of substrate solutions by purified collagenase (Example 12); assay type: biochemical, tadpole; details: for 00365 (absorbance of the organic layer at 365 nm): pH 7.5
Protocol: as §1
DNP-Pro-Gln-Gly-Ile-Ala-Gly-Gln-D-Arg-OH.CH3 COOH.H2 O (4.96 mg) was neutralized with 0.1N sodium hydroxide, and dissolved in 0.05M tris-HCl buffer, pH 7.5, containing 0.15 M NaCl and 5 m MCaCl2 to make 10 ml of the substrate solution (a) having a concentration of 5×10^-4 M. The substrate solution (b) was also prepared similarly by using DNP-Gln-Gly-Ile-Ala-Gly-Gln-D-Arg-OH.CH3 COOH.H2 O (4.48 mg).
as §2, §3

[4] = system: purified collagenase; assay: Rate of hydrolysis of DNP-peptide derivatives by purified collagenase (Example 15); assay type: biochemical, tadpole; details: 5×10^-4 M peptide, purified collagenase 6.2 U/ml, 37° C., pH 7.5; average of three experiments; extraction with ethyl acetate (* compounds: ethyl acetate-n-butanol 1:0.15)
Protocol: as §1, §4

[5] = system: collagenase in synovial fluids; assay: Hydrolysis of substrate solutions by synovial fluids from patients; collagenase activity (Example 14); assay type: biochemical, human; details: for OD365/0.1 ml ohr: 0 hr; for OD365/0.1 ml 2hr: 2 hr at 37° C.; for OD365/0.1 ml increment: 2 hr minus 0 hr
Protocol: as §3
0.2 ml Each of the substrate (solutions(a) and (b) prepared in Example 12 was mixed with 0.1 ml of synovial fluids from patients with osteoarthritis and rheumatoid arthritis, and incubated for 2 hours at 37° C. After stopping the enzyme reaction by adding 0.5 ml of 1 M hydrochloric acid, the DNP-peptide fragments released were extracted by vigorous shaking with 2 ml of ethyl acetate-n-butanol (1:0.15, V/V), and worked up as in Example 12 to obtain the collagenase activities.

[6] = synovial fluid of case five, RA
[7] = synovial fluid of case four, OA
[8] = synovial fluid of case three, RA

CC[C@H](C)[C@H](NC(=O)CNC(=O)[C@H](CCC(N)=O)NC(=O)[C@@H]1CCCN1c1ccc([N+](=O)[O-])cc1[N+](=O)[O-])C(=O)N[C@@H](C)C(=O)NCC(=O)N[C@@H](CCC(N)=O)C(=O)N[C@H](CCCNC(=N)N)C(=O)O [Example 1, DNP-Pro-Gln-Gly-Ile-Ala-Gly-Gln-D-Arg-OH] (Dnp-PQGIAGQ[dR]-OH)
00365 (absorbance of the organic layer at 365 nm) ([1]; incubation time 0 min): 0.053 | 00365 (absorbance of the organic layer at 365 nm) ([1]; incubation time 10 min): 0.054 | increment of 00365 ([1]; incubation time 10 min): 0.001 | 00365 (absorbance of the organic layer at 365 nm) ([1]; incubation time 20 min): 0.056 | increment of 00365 ([1]; incubation time 20 min): 0.002 | 00365 (absorbance of the organic layer at 365 nm) ([1]; incubation time 40 min): 0.058 | increment of 00365 ([1]; incubation time 40 min): 0.004 | 00365 (absorbance of the organic layer at 365 nm) ([1]; incubation time 60 min): 0.060 | increment of 00365 ([1]; incubation time 60 min): 0.007 | 00365 (absorbance of the organic layer at 365 nm) ([1]; incubation time 120 min): 0.063 | increment of 00365 ([1]; incubation time 120 min): 0.010 | Rate of hydrolysis by non-specific peptidases [2]: 0 OD365/hr | 00365 (absorbance of the organic layer at 365 nm) ([3]; incubation time 0 min): 0.033 | increment of 00365 ([3]; incubation time 10 min): 0.018 | 00365 (absorbance of the organic layer at 365 nm) ([3]; incubation time 10 min): 0.051 | increment of 00365 ([3]; incubation time 20 min): 0.018 | 00365 (absorbance of the organic layer at 365 nm) ([3]; incubation time 20 min): 0.071 | increment of 00365 ([3]; incubation time 40 min): 0.079 | 00365 (absorbance of the organic layer at 365 nm) ([3]; incubation time 40 min): 0.112 | increment of 00365 ([3]; incubation time 60 min): 0.107 | 00365 (absorbance of the organic layer at 365 nm) ([3]; incubation time 60 min): 0.140 | increment of 00365 ([3]; incubation time 120 min): 0.184 | 00365 (absorbance of the organic layer at 365 nm) ([3]; incubation time 120 min): 0.217 | Rate of hydrolysis by Collagenase [4]: 0.093 OD365/hr | OD365/0.1 ml ohr [5, 6]: 0.045 OD365/0.1 ml | OD365/0.1 ml 2hr [5, 6]: 0.591 OD365/0.1 ml | OD365/0.1 ml increment [5, 6]: 0.546 OD365/0.1 ml | OD365/0.1 ml ohr [5, 7]: 0.042 OD365/0.1 ml | OD365/0.1 ml 2hr [5, 7]: 0.045 OD365/0.1 ml | OD365/0.1 ml increment [5, 7]: 0.003 OD365/0.1 ml | OD365/0.1 ml ohr ([5]; synovial fluid of case one, RA): 0.041 OD365/0.1 ml | OD365/0.1 ml 2hr ([5]; synovial fluid of case one, RA): 0.058 OD365/0.1 ml | OD365/0.1 ml increment ([5]; synovial fluid of case one, RA): 0.017 OD365/0.1 ml | OD365/0.1 ml ohr ([5]; synovial fluid of case six, OA): 0.045 OD365/0.1 ml | OD365/0.1 ml 2hr ([5]; synovial fluid of case six, OA): 0.041 OD365/0.1 ml | OD365/0.1 ml increment ([5]; synovial fluid of case six, OA): 0 OD365/0.1 ml | OD365/0.1 ml ohr [5, 8]: 0.049 OD365/0.1 ml | OD365/0.1 ml 2hr [5, 8]: 0.695 OD365/0.1 ml | OD365/0.1 ml increment [5, 8]: 0.646 OD365/0.1 ml | OD365/0.1 ml ohr ([5]; synovial fluid of case two, OA): 0.045 OD365/0.1 ml | OD365/0.1 ml 2hr ([5]; synovial fluid of case two, OA): 0.043 OD365/0.1 ml

CC(C)C[C@H](NC(=O)CNC(=O)[C@H](CCC(N)=O)NC(=O)[C@@H]1CCCN1c1ccc([N+](=O)[O-])cc1[N+](=O)[O-])C(=O)N[C@@H](C)C(=O)NCC(=O)N[C@@H](CCC(N)=O)C(=O)N[C@H](CCCNC(=N)N)C(=O)O [Example 4, DNP-Pro-Gln-Gly-Leu-Ala-Gly-Gln-D-Arg-OH] (Dnp-PQGLAGQ[dR]-OH)
Rate of hydrolysis by non-specific peptidases [2]: 0.031 OD365/hr | Rate of hydrolysis by Collagenase [4]: 0.243 OD365/hr

CC[C@H](C)[C@H](NC(=O)CNC(=O)[C@H](C)NC(=O)[C@@H]1CCCN1c1ccc([N+](=O)[O-])cc1[N+](=O)[O-])C(=O)N[C@@H](C)C(=O)NCC(=O)N[C@@H](CCC(N)=O)C(=O)N[C@H](CCCNC(=N)N)C(=O)O [Example 5, DNP-Pro-Ala-Gly-Ile-Ala-Gly-Gln-D-Arg-OH] (Dnp-PAGIAGQ[dR]-OH)
Rate of hydrolysis by non-specific peptidases [2]: 0.010 OD365/hr | Rate of hydrolysis by Collagenase [4]: 0.070 OD365/hr

CC(C)C[C@H](NC(=O)CNC(=O)[C@H](C)NC(=O)[C@@H]1CCCN1c1ccc([N+](=O)[O-])cc1[N+](=O)[O-])C(=O)N[C@@H](C)C(=O)NCC(=O)N[C@@H](CCC(N)=O)C(=O)N[C@H](CCCNC(=N)N)C(=O)O [Example 6, DNP-Pro-Ala-Gly-Leu-Ala-Gly-Gln-D-Arg-OH] (Dnp-PAGLAGQ[dR]-OH)
Rate of hydrolysis by non-specific peptidases [2]: 0.051 OD365/hr | Rate of hydrolysis by Collagenase [4]: 0.120 OD365/hr
